Calls of active or inactive are those of the source. How the calls were made is not given here.
Experiments:
Experiment in all cases: PubChem AID 1788
[1] = target: Neuropeptide Y receptor type 1 (Homo sapiens) (UniProt P25929); conditions: MDS Pharma lead profiling panel, radioligand binding; Neuropeptide Y Y1 (human); at 10 µM; hits give high values
[2] = system: Epidermal Growth Factor (EGF) (human); conditions: MDS Pharma lead profiling panel, radioligand binding, at 10 µM, hits give high values
Adrenergic a1D (human) = conditions: MDS Pharma lead profiling panel, radioligand binding, at 10 µM, hits give high values
Adrenergic a1A (rat) = conditions: MDS Pharma lead profiling panel, radioligand binding, at 10 µM, hits give high values
GABA B1A (human) = conditions: MDS Pharma lead profiling panel, radioligand binding, at 10 µM, hits give high values
[3] = system: Transporter, Serotonin (5-Hydroxytryptamine) (SERT) (human); conditions: MDS Pharma lead profiling panel, radioligand binding, at 10 µM, hits give high values
Glutamate Kainate (rat) = conditions: MDS Pharma lead profiling panel, radioligand binding, at 10 µM, hits give high values
[4] = target: Muscarinic acetylcholine receptor M3 (Homo sapiens) (UniProt P20309); conditions: MDS Pharma lead profiling panel, radioligand binding, at 10 µM, hits give high values
[5] = system: Calcium channel L-type (rat); conditions: MDS Pharma lead profiling panel, radioligand binding, dihydropyridine site, at 10 µM, hits give high values
Endothelin ETB (human) = conditions: MDS Pharma lead profiling panel, radioligand binding, at 10 µM, hits give high values
[6] = target: Beta-2 adrenergic receptor (Homo sapiens) (UniProt P07550); conditions: MDS Pharma lead profiling panel, radioligand binding; Adrenergic b2 (human); at 10 µM; hits give high values
Bradykinin B1 (human) = conditions: MDS Pharma lead profiling panel, radioligand binding, at 10 µM, hits give high values
[7] = target: Alpha-2A adrenergic receptor (Homo sapiens) (UniProt P08913); conditions: MDS Pharma lead profiling panel, radioligand binding; Adrenergic a2A (human); at 10 µM; hits give high values
[8] = system: Transporter, Norepinephrine (NET) (human); conditions: MDS Pharma lead profiling panel, radioligand binding, at 10 µM, hits give high values
Adenosine A3 (human) = conditions: MDS Pharma lead profiling panel, radioligand binding, at 10 µM, hits give high values
Purinergic P2Y (rat) = conditions: MDS Pharma lead profiling panel, radioligand binding, at 10 µM, hits give high values
Glutamate NMDA (rat) = conditions: MDS Pharma lead profiling panel, radioligand binding, at 10 µM, hits give high values
[9] = target: Glucocorticoid receptor (Homo sapiens) (UniProt P04150); conditions: MDS Pharma lead profiling panel, radioligand binding, at 10 µM, hits give high values
[10] = target: Delta-type opioid receptor (Homo sapiens) (UniProt P41143); conditions: MDS Pharma lead profiling panel, radioligand binding; Opiate d (OP1, DOP) (human); at 10 µM; hits give high values
Dopamine D4.2 (human) = conditions: MDS Pharma lead profiling panel, radioligand binding, at 10 µM, hits give high values
[11] = system: Androgen (testosterone) AR (rat); conditions: MDS Pharma lead profiling panel, radioligand binding, at 10 µM, hits give high values
[12] = system: Vesicular inhibitory amino acid transporter (Rattus norvegicus) + Pro-epidermal growth factor (Homo sapiens) + Acetylcholine receptor subunit alpha (Homo sapiens) + Estrogen receptor (Homo sapiens) + Glucocorticoid receptor (Homo sapiens) + Sodium channel protein type 1 subunit alpha (Rattus norvegicus) + Beta-2 adrenergic receptor (Homo sapiens) + Muscarinic acetylcholine receptor M2 (Homo sapiens) + Beta-1 adrenergic receptor (Homo sapiens) + 5-hydroxytryptamine receptor 1A (Homo sapiens) + Alpha-2A adrenergic receptor (Homo sapiens) + Muscarinic acetylcholine receptor M1 (Homo sapiens) + Interleukin-1 receptor type 1 (Mus musculus) + D(2) dopamine receptor (Homo sapiens) + Androgen receptor (Rattus norvegicus) + Gamma-aminobutyric acid receptor subunit gamma-2 (Rattus norvegicus) + Muscarinic acetylcholine receptor M3 (Homo sapiens) + D(1A) dopamine receptor (Homo sapiens) + D(4) dopamine receptor (Homo sapiens) + Glutamate receptor ionotropic, kainate 1 (Rattus norvegicus) + Sodium-dependent noradrenaline transporter (Homo sapiens) + Endothelin receptor type B (Homo sapiens) + Alpha-1D adrenergic receptor (Homo sapiens) + Endothelin-1 receptor (Homo sapiens) + Substance-P receptor (Homo sapiens) + Neuropeptide Y receptor type 1 (Homo sapiens) + Adenosine receptor A2a (Homo sapiens) + B2 bradykinin receptor (Homo sapiens) + Adenosine receptor A1 (Homo sapiens) + Sodium-dependent serotonin transporter (Homo sapiens) + Neuronal acetylcholine receptor subunit alpha-3 (Homo …; conditions: MDS Pharma lead profiling panel, radioligand binding; at 10 µM; hits give high values
[13] = system: Transporter, Dopamine (DAT) (human); conditions: MDS Pharma lead profiling panel, radioligand binding, at 10 µM, hits give high values
[14] = target: D(2) dopamine receptor (Homo sapiens) (UniProt P14416); conditions: MDS Pharma lead profiling panel, radioligand binding; Dopamine D2S (human); at 10 µM; hits give high values
Adenosine A1 (human) = conditions: MDS Pharma lead profiling panel, radioligand binding, at 10 µM, hits give high values
Histamine H2 (human) = conditions: MDS Pharma lead profiling panel, radioligand binding, at 10 µM, hits give high values
[15] = target: Voltage-gated inwardly rectifying potassium channel KCNH2 (Homo sapiens) (UniProt Q12809); conditions: MDS Pharma lead profiling panel, radioligand binding; Potassium Channel hERG (human); at 10 µM; hits give high values
Chain of Voltage-gated inwardly rectifying potassium channel KCNH2 (Homo sapiens) (Q12809 whole entry, looked up): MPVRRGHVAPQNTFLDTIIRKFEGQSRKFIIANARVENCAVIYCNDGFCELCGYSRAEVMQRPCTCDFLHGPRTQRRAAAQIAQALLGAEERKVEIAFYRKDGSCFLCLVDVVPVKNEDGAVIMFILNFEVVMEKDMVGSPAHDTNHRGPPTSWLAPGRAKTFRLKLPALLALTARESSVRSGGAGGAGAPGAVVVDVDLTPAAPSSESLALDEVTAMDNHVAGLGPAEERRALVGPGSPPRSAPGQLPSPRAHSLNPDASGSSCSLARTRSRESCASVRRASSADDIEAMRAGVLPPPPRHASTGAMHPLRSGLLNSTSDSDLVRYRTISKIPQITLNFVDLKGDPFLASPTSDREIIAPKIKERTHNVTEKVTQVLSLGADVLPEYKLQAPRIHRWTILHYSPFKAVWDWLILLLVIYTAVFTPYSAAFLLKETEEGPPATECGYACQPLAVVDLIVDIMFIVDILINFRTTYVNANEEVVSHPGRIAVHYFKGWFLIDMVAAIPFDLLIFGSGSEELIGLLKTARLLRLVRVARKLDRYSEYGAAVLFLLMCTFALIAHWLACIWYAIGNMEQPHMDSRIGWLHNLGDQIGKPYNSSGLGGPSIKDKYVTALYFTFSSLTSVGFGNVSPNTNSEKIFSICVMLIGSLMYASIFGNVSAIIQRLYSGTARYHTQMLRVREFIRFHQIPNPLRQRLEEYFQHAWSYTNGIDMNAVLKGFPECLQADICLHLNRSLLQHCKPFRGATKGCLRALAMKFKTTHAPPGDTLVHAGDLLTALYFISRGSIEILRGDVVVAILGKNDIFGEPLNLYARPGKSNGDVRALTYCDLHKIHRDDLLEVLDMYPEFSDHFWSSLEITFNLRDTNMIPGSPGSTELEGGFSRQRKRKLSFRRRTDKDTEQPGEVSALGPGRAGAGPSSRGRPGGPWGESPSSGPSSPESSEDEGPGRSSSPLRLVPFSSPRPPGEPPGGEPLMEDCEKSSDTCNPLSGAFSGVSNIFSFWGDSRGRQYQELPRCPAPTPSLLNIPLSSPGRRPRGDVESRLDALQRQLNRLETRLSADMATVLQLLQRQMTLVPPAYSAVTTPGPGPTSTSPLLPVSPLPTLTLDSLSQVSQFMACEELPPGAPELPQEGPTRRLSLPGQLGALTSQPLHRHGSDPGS

Chain of Delta-type opioid receptor (Homo sapiens) (P41143 whole entry, looked up): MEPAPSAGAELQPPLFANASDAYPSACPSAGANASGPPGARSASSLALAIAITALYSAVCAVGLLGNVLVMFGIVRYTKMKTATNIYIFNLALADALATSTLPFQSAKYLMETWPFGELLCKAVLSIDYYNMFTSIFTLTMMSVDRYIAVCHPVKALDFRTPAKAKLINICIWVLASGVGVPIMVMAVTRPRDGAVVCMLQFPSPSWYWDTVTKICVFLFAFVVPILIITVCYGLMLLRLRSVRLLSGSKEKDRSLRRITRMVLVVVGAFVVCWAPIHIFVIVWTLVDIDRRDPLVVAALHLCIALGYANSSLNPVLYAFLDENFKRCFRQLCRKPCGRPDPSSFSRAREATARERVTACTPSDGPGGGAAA
Chain of Beta-2 adrenergic receptor (Homo sapiens) (P07550 whole entry, looked up): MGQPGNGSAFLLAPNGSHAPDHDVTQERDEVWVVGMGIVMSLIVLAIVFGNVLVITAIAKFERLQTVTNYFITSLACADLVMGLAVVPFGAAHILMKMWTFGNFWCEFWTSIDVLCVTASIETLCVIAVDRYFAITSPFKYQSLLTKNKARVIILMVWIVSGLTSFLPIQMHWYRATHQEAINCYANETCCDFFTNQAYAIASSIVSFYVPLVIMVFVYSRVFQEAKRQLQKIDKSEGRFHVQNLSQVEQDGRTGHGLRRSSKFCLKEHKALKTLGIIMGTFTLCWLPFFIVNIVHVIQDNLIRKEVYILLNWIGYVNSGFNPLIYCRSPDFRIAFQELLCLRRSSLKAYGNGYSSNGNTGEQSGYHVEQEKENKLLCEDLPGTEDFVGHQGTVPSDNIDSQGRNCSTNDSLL
Chain of Glucocorticoid receptor (Homo sapiens) (P04150 whole entry, looked up): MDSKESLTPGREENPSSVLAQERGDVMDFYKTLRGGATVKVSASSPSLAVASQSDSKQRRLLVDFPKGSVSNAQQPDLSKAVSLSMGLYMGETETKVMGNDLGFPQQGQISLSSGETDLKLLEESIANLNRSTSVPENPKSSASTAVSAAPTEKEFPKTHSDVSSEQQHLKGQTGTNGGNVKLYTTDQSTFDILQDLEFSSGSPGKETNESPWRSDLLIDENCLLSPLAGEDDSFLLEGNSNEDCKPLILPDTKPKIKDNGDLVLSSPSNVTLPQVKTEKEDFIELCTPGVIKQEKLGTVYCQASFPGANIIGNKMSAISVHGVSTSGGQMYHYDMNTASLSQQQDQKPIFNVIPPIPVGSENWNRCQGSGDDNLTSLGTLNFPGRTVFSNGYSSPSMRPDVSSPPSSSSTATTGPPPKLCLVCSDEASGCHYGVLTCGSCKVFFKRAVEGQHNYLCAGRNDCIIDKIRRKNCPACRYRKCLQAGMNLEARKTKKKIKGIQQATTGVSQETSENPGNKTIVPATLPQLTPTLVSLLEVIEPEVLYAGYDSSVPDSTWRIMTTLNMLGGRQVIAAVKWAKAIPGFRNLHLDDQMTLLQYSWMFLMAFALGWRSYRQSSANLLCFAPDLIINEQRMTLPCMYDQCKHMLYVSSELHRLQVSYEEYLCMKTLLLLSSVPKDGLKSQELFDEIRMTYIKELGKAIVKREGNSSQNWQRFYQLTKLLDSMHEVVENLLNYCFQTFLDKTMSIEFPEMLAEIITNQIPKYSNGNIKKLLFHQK
Chain of Neuropeptide Y receptor type 1 (Homo sapiens) (P25929 whole entry, looked up): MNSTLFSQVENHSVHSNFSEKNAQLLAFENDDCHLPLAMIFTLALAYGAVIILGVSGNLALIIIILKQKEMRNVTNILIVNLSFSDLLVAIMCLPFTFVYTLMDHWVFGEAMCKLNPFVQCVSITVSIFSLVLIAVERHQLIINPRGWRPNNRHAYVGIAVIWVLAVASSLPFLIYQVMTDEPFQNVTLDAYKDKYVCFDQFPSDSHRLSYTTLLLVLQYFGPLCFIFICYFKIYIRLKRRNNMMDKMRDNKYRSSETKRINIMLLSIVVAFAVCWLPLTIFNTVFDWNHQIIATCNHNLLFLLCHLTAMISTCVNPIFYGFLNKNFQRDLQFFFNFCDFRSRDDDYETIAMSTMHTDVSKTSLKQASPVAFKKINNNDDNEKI
Chain of Muscarinic acetylcholine receptor M3 (Homo sapiens) (P20309 whole entry, looked up): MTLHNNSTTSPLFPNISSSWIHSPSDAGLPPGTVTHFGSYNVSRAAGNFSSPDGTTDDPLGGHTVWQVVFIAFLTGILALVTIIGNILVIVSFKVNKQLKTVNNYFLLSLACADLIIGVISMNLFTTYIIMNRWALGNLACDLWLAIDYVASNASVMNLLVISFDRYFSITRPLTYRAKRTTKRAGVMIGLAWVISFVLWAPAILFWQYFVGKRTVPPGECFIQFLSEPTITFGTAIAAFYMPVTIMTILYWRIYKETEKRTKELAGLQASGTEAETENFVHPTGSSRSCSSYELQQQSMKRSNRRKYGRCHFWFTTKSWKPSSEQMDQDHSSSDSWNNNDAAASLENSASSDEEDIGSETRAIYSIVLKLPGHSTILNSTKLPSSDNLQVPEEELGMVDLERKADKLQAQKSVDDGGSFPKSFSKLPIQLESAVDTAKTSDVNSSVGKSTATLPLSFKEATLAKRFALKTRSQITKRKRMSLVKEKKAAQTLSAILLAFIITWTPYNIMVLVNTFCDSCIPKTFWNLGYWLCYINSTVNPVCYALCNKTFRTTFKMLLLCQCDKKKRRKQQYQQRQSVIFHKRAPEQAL
Chain of D(2) dopamine receptor (Homo sapiens) (P14416 whole entry, looked up): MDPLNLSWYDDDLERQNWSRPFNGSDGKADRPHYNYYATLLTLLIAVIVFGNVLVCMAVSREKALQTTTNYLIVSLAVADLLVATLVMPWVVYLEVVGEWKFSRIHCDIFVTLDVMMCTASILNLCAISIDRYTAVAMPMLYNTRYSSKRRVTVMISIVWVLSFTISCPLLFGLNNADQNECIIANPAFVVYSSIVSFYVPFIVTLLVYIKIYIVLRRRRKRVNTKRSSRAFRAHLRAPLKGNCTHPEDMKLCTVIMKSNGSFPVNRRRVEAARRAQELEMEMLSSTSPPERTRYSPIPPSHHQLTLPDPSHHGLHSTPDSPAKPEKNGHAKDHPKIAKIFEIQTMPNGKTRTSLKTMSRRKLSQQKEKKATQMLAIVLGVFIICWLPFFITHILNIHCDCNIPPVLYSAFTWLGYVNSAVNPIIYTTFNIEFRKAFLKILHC
Chain of Alpha-2A adrenergic receptor (Homo sapiens) (P08913 whole entry, looked up): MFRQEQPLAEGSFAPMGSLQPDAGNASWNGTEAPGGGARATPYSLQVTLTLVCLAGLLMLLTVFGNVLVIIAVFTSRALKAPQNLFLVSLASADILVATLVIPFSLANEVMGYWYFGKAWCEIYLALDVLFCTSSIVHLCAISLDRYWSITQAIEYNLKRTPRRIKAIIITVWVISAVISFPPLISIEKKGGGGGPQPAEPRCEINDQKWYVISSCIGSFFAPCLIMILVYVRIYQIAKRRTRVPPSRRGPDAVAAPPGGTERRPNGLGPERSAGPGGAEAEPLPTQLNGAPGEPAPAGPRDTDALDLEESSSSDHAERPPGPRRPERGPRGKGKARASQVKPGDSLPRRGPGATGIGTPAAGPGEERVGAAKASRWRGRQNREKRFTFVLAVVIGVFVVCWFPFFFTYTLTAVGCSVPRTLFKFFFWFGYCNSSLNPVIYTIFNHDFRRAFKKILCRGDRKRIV

CCOC(=O)N1CCC(NCCNC(=O)c2ccccc2C)CC1
inhibition [1]: 0% (inactive)
inhibition [2]: -3% (inactive)
inhibition (Adrenergic a1D (human)): 28% (inactive)
inhibition (Adrenergic a1A (rat)): 53%
inhibition (GABA B1A (human)): -22% (inactive)
inhibition [3]: -5% (inactive)
inhibition (Glutamate Kainate (rat)): 9% (inactive)
inhibition [4]: -14% (inactive)
inhibition [5]: -8% (inactive)
inhibition (Endothelin ETB (human)): -4% (inactive)
inhibition [6]: -1% (inactive)
inhibition (Bradykinin B1 (human)): 8% (inactive)
inhibition [7]: 22% (inactive)
inhibition [8]: 1% (inactive)
inhibition (Adenosine A3 (human)): 7% (inactive)
inhibition (Purinergic P2Y (rat)): -2% (inactive)
inhibition (Glutamate NMDA (rat); Glycine site): -11% (inactive)
inhibition (Glutamate NMDA (rat); Phencyclidine site): 7% (inactive)
inhibition (Glutamate NMDA (rat); agonism site): 13% (inactive)
inhibition [9]: -8% (inactive)
inhibition [10]: -7% (inactive)
inhibition (Dopamine D4.2 (human)): 52% (inactive)
inhibition [11]: -2% (inactive)
inhibition [12]: -8% (inactive)
inhibition [13]: -1% (inactive)
inhibition [14]: 29% (inactive)
inhibition (Adenosine A1 (human)): -4% (inactive)
inhibition (Histamine H2 (human)): 27% (inactive)
inhibition [15]: 1% (inactive)
